Tested on: NICD (Notch intracellular domain) CSL-bla reporter in HeLa cells
Assay: Notch assay (CellSensor T-REx NICD CSL-bla HeLa beta-lactamase reporter; Method 1 / Method 2)
Format: cell-based
Details: Homo sapiens, 10 μM compound, Method 1 (10× compound prepared in assay medium, added to plated cells), read-out: inhibiton (%) at 10 μM
Summary of the method: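 HeLa cells carrying doxycycline-inducible NICD and a CSL-driven beta-lactamase reporter, 10^3 cells/well, were treated with compound plus doxycycline for 16-20 h at 37 °C. CCF4-AM substrate was loaded for 4 h at room temperature; background-subtracted blue (460 nm)/green (530 nm) emission ratio taken per well.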

SMILES | inhibition at 10 µM [%]
CC(C)C[C@@H]1ON(C(=O)OCc2cccc3ccccc23)C2CN(C(C)C)C(=O)[C@H](Cc3ccc(O)cc3)N2C1=O (stereo partly drawn) [Compound I-24, (3S,6S)-naphthalen-1-ylmethyl 6-(4-hydroxybenzyl)-3-isobutyl-8-isopropyl-4,7-dioxohexahydropyrazino[2,1-c][1,2,4]oxadiazine-1(6H)-carboxylate] | 68.1
CCCCCCOC(=O)N1O[C@@H](CC(C)C)C(=O)N2C1CN(Cc1ccccc1)C(=O)[C@@H]2Cc1ccc(O)cc1 (stereo partly drawn) [Compound I-5, (3S,6S)-hexyl 8-benzyl-6-(4-hydroxybenzyl)-3-isobutyl-4,7-dioxohexahydropyrazino[2,1-c][1,2,4]oxadiazine-1(6H)-carboxylate] | 66.1
CC(C)CCN1CC2N(C(=O)OCc3cccc4ccccc34)O[C@H](C(C)C)C(=O)N2[C@@H](Cc2ccc(O)cc2)C1=O (stereo partly drawn) [Compound I-9, (3R,6S)-naphthalen-1-ylmethyl 6-(4-hydroxybenzyl)-8-isopentyl-3-isopropyl-4,7-dioxohexahydropyrazino[2,1-c][1,2,4]oxadiazine-1(6H)-carboxylate] | 70

Same assay, conditions: Homo sapiens, 10 μM compound, Method 2 (40 nL of 1000× compound added to plate with Echo), read-out: inhibiton (%) at 10 μM

SMILES | inhibition at 10 µM [%]
COC(=O)N1O[C@H](CC2CCCCC2)C(=O)N2C1CN(CC1CCCCC1)C(=O)[C@@H]2CCCCN (stereo partly drawn) [Compound I-36, (3R,6S)-methyl 6-(4-aminobutyl)-3,8-bis(cyclohexylmethyl)-4,7-dioxohexahydropyrazino[2,1-c][1,2,4]oxadiazine-1(6H)-carboxylate] | 52.2
CC(C)C[C@H]1ON(C(=O)OCCc2ccccc2)C2CN([C@@H](Cc3ccc(O)cc3)C(=O)NCCc3ccccc3)C(=O)[C@H](Cc3ccc(O)cc3)N2C1=O (stereo partly drawn) [Compound I-102, phenethyl (3R,6S)-6-(4-hydroxybenzyl)-8-((S)-3-(4-hydroxyphenyl)-1-oxo-1-(phenethylamino)propan-2-yl)-3-isobutyl-4,7-dioxohexahydropyrazino[2,1-c][1,2,4]oxadiazine-1(6H)-carboxylate] | 67.3
CC(C)C[C@H]1C(=O)N(CCc2ccc(O)cc2)CC2N(C(=O)OCCc3ccc(O)cc3)O[C@H](Cc3ccc(O)cc3)C(=O)N21 (stereo partly drawn) [Compound I-41, (3R,6S)-4-hydroxyphenethyl 3-(4-hydroxybenzyl)-8-(4-hydroxyphenethyl)-6-isobutyl-4,7-dioxohexahydropyrazino[2,1-c][1,2,4]oxadiazine-1(6H)-carboxylate] | 59.3
CCCCCOC(=O)N1O[C@H](Cc2ccccc2)C(=O)N2C1CN([C@@H](Cc1ccc(O)cc1)C(=O)NCCc1ccccc1)C(=O)[C@@H]2Cc1ccc(O)cc1 (stereo partly drawn) [Compound I-113, pentyl (3R,6S)-3-benzyl-6-(4-hydroxybenzyl)-8-((S)-3-(4-hydroxyphenyl)-1-oxo-1-(phenethylamino)propan-2-yl)-4,7-dioxohexahydropyrazino[2,1-c][1,2,4]oxadiazine-1(6H)-carboxylate] | 62.9
CCCC[C@@H](C(=O)NCCc1ccccc1)N1CC2N(C(=O)OCCc3ccc(O)cc3)O[C@H](Cc3ccc(O)cc3)C(=O)N2[C@@H](Cc2ccc(O)cc2)C1=O (stereo partly drawn) [Compound I-119, 4-hydroxyphenethyl (3R,6S)-3,6-bis(4-hydroxybenzyl)-4,7-dioxo-8-((S)-1-oxo-1-(phenethylamino)hexan-2-yl)hexahydropyrazino[2,1-c][1,2,4]oxadiazine-1(6H)-carboxylate] | 55.7
CC(C)C[C@H]1C(=O)N(C2CCN(C)CC2)CC2N(C(=O)OCc3ccccc3)O[C@H](CC3CCCCC3)C(=O)N21 (stereo partly drawn) [Compound I-138, benzyl (3R,6S)-3-(cyclohexylmethyl)-6-isobutyl-8-(1-methylpiperidin-4-yl)-4,7-dioxohexahydropyrazino[2,1-c][1,2,4]oxadiazine-1(6H)-carboxylate] | 98.2
O=C(NCCc1ccccc1)[C@H](Cc1ccccc1)N1CC2N(C(=O)OCCc3ccc(O)cc3)O[C@H](Cc3ccc(O)cc3)C(=O)N2[C@@H](Cc2ccc(O)cc2)C1=O (stereo partly drawn) [Compound I-116, 4-hydroxyphenethyl (3R,6S)-3,6-bis(4-hydroxybenzyl)-4,7-dioxo-8-((S)-1-oxo-1-(phenethylamino)-3-phenylpropan-2-yl)hexahydropyrazino[2,1-c][1,2,4]oxadiazine-1(6H)-carboxylate] | 62.5
CC(C)CCNC(=O)[C@H](CC(C)C)N1CC2N(C(=O)OCCc3ccc(O)cc3)O[C@H](CC(C)C)C(=O)N2[C@@H](Cc2ccc(O)cc2)C1=O (stereo partly drawn) [Compound I-91, 4-hydroxyphenethyl (3R,6S)-6-(4-hydroxybenzyl)-3-isobutyl-8-((S)-1-(isopentylamino)-4-methyl-1-oxopentan-2-yl)-4,7-dioxohexahydropyrazino[2,1-c][1,2,4]oxadiazine-1(6H)-carboxylate] | 51
CCCC[C@@H](C(=O)NCCCC(C)C)N1CC2N(C(=O)OCCc3ccc(O)cc3)O[C@H](Cc3ccccc3)C(=O)N2[C@@H](C)C1=O (stereo partly drawn) [Compound I-122, 4-hydroxyphenethyl (3R,6S)-3-benzyl-6-methyl-8-((S)-1-((4-methylpentyl)amino)-1-oxohexan-2-yl)-4,7-dioxohexahydropyrazino [2,1-c][1,2,4]oxadiazine-1(6H)-carboxylate] | 79.9
CN1CCC(N2CC3N(C(=O)OCc4ccccc4)O[C@H](CC4CCCCC4)C(=O)N3[C@@H](CC3CCCCC3)C2=O)CC1 (stereo partly drawn) [Compound I-139, benzyl (3R,6S)-3,6-bis (cyclohexylmethyl)-8-(1-methylpiperidin-4-yl)-4,7-dioxohexahydropyrazino [2,1-c][1,2,4]oxadiazine-1(6H)-carboxylate] | 116
CCCC[C@@H](C(=O)NCCCC(C)C)N1CC2N(C(=O)OCCc3ccc(O)cc3)O[C@H](CC(C)C)C(=O)N2[C@@H](Cc2ccc(O)cc2)C1=O (stereo partly drawn) [Compound I-101, 4-hydroxyphenethyl (3R,6S)-6-(4-hydroxybenzyl)-3-isobutyl-8-((S)-1-((4-methylpentyl)amino)-1-oxohexan-2-yl)-4,7-dioxohexahydropyrazino[2,1-c][1,2,4]oxadiazine-1(6H)-carboxylate] | 54.4
C[C@H]1C(=O)N(Cc2cccc3ccccc23)CC2N(C(=O)OCC3CCCCC3)O[C@H](CCCNC(=N)N)C(=O)N21 (stereo partly drawn) [Compound I-52, (3R,6S)-cyclohexylmethyl 3-(3-guanidinopropyl)-6-methyl-8-(naphthalen-1-ylmethyl)-4,7-dioxohexahydropyrazino[2,1-c][1,2,4]oxadiazine-1(6H)-carboxylate] | 51.4
CC(C)CCNC(=O)[C@H](Cc1ccc(O)cc1)N1CC2N(C(=O)OCCC(C)C)O[C@H](CC(C)C)C(=O)N2[C@@H](Cc2ccc(O)cc2)C1=O (stereo partly drawn) [Compound I-94, isopentyl (3R,6S)-6-(4-hydroxybenzyl)-8-((S)-3-(4-hydroxyphenyl)-1-(isopentylamino)-1-oxopropan-2-yl)-3-isobutyl-4,7-dioxohexahydropyrazino[2,1-c][1,2,4]oxadiazine-1(6H)-carboxylate] | 57.8
Cc1ccc(S(=O)(=O)N2CCC(CCCN3O[C@H](CC(C)C)C(=O)N4C3CN(C3CCN(C)CC3)C(=O)[C@@H]4CC(C)C)CC2)cc1 (stereo partly drawn) [Compound I-149, (3R,6S)-3,6-diisobutyl-8-(1-methylpiperidin-4-yl)-1-(3-(1-tosylpiperidin-4-yl)propyl)tetrahydropyrazino [2,1-c][1,2,4]oxadiazine-4,7(3H,6H)-dione] | 114
